A short description of one series: Thermal stability (DSC). The class given is physicochemical. The settings on record: for Tpeak of desolvation event (first endothermic peak maximum, DSC): DSC 20 to 235° C., dry nitrogen purge, event = loss of EtOH, H2O or lactic acid; for Tpeak of desolvation event (first endothermic peak maximum, DSC) / Onset temperature of decomposition peak (DSC) / Peak maximum temperature of decomposition peak (DSC): heating rate 20 K/min; for Stability against temperature stress compared to levothyroxine sodium pentahydrate (DSC conclusion): DSC analysis; for Onset temperature of decomposition peak (DSC) / Peak maximum temperature of decomposition peak (DSC): co-crystal: second endotherm, concomitant melting and decomposition, sodium pentahydrate: exotherm. On the procedure: Each sample (approximately 4±0.0005 mg using a UM3 ultramicrobalance, Mettler, Greifensee, CH) was weighed into an aluminum pan (25 microlitre) and sealed with a cover, which was perforated by a needle. Dry nitrogen was used as the purge gas (purge rate: 20 mL/min). The samples were heated from 20 to 235° C. at a heating rate of 20 K/min.
For orientation: Differential scanning calorimetry records heat flow against a reference as temperature is scanned.

The nature of another series: Thermal stability (TGA). It counts as physicochemical. Conditions: for Temperature range of desolvation event (TGA): TGA 20 to 235° C., 10 K/min, nitrogen purge, event = loss of EtOH, H2O or lactic acid. As to the method:
Each sample (approximately 4±0.0005 mg using a UM3 ultramicrobalance, Mettler, Greifensee, CH) was weighed into an unsealed platinum sample holder (50 microlitre). The samples were heated from 20 to 235° C. at a rate of 10 K/min. Nitrogen (sample purge rate 20 mL/min and balance purge rate 40 mL/min)) was used as purge gas.

For series [1] the following is noted: Hamad et al., Pharm Dev Technol 2015; 20(3): 314-319; cited from earlier work.
Series [2] is described as follows: Chemical stability: exposure to ambient air at 40° C. and 0% RH, followed by 1H-NMR.
Protocol: A ^1H-NMR spectrum of each substance was recorded at the beginning of the test period, at 3 weeks and finally at 6 weeks. Spectra were recorded on a Bruker Avance-300 Spectrometer (Spectrometer frequency: 300 MHz). Each sample for analysis was prepared by dissolving about 20 mg of solid in 600 microlitres of d6-DMSO. All samples were analysed immediately after preparation.
[3] abbreviates: listed as L-tartaric acid L-lactic acid co-crystal.
[4] abbreviates: TGA 10 K/min, up to about 120° C.
Setting [5] is: listed as L-tartaric acid co-crystal.

In the case of `N[C@@H](Cc1cc(I)c(Oc2cc(I)c(O)c(I)c2)c(I)c1)C(=O)O` [levothyroxine L-tartaric acid L-lactic acid co-crystal], the figures for the “Tpeak of desolvation event (first endothermic peak maximum, DSC)” value (shortened to “Tpeak of desolvation event”) in the series “Thermal stability (DSC)” and in the series “Thermal stability (DSC)” (setting [3]) were “about 162 °C” and 162 °C, respectively. Moreover, the “Stability against temperature stress compared to levothyroxine sodium pentahydrate (DSC conclusion)” value in “Thermal stability (DSC)” is listed as “more stabe against temperature stress”. The “Mass loss up to about 120° C. (TGA)” value in “Thermal stability (TGA)” (setting [4]) is recorded as “about 0.5 weight-%”. The results for the “Temperature range of desolvation event (TGA)” value (“Temperature range” below) in “Thermal stability (TGA)” and in “Thermal stability (TGA)” (setting [3]) were 150 to 170 °C and ~150-170 °C, respectively.

Consider `N[C@@H](Cc1cc(I)c(Oc2cc(I)c(O)c(I)c2)c(I)c1)C(=O)[O-].[Na+]` [levothyroxine sodium pentahydrate, Levothyroxine sodium pentahydrate, reference compound], for which, in “Thermal stability (DSC)”, the “Onset temperature of decomposition peak (DSC)” value was “about 202 °C” and the “Peak maximum temperature of decomposition peak (DSC)” value is “about 205 °C”. For the same molecule, the “Mass loss up to about 120° C. (TGA), in words” value in “Thermal stability (TGA)” (setting [4]) was “significant weight loss”. Moreover, the “Temperature range” value in “Thermal stability (TGA)” is ~30-120 °C. The “Chemical degradation on exposure to dry conditions in the presence of molecular oxygen” value in series [1] was “significant degradation”. For the same molecule, the “Chemical stability under the applied stress conditions (1H-NMR)” value in series [2] (ambient air (oxygen about 20.9 volume %), 6 weeks, spectra at start, 3 and 6 weeks) was “chemically unstable”. The “1H-NMR spectrum change after 3 weeks” value in series [2] (ambient air, 3 weeks) is reported as “additional peaks become evident”. Further, the “1H-NMR spectrum change after 6 weeks” value in series [2] (ambient air, 6 weeks) was “become even more intense”.

Turning to `N[C@@H](Cc1cc(I)c(Oc2cc(I)c(O)c(I)c2)c(I)c1)C(=O)O` [levothyroxine L-tartaric acid co-crystal], in the series “Thermal stability (DSC)”, the “Tpeak of desolvation event” value was “about 165 °C”; the “Stability against temperature stress compared to levothyroxine sodium pentahydrate (DSC conclusion)” value was “more stable against temperature stress”; the “Onset temperature of decomposition peak (DSC)” value is “about 180 °C”; the “Peak maximum temperature of decomposition peak (DSC)” value was “about 197 °C”. Also, the “Tpeak of desolvation event” value in the series “Thermal stability (DSC)” (setting [5]) was 165 °C. Besides, in the series “Thermal stability (TGA)” (setting [4]), the “Mass loss up to about 120° C. (TGA), in words” value is listed as “only a slight mass loss”. In addition, the “Temperature range” value in “Thermal stability (TGA)” is 150 to 170 °C. The “Temperature range” value in the series “Thermal stability (TGA)” (setting [5]) is ~150-170 °C.

These data come from patent US12043590B2, “Co-crystals comprising levothyroxine and a dicarboxylic acid” (Sandoz AG, priority 2018, dated 2024).
